Tested on: IFNγ-Induced NO Production
Assay: Nitric Oxide Suppression Assay (Suppression of IFNγ-Induced NO Production)
Format: cell-based
Conditions: RAW264.7; RAW 264.7 mouse macrophage cells; 2 hour pre-treatment with compound (3 μM to 0.3 nM, 10 point curve); 20 ng/mL interferon gamma, ~18 hour; Griess detection; n=2-3 in duplicates
Protocol: RAW 264.7, a mouse macrophage cell line, was obtained from American Type Culture Collection (Manassas Va.) and maintained in the log phase of growth in Dulbecco's Modified Eagle's Medium (DMEM), 10% heat inactivated fetal calf serum and 100 units/mL antibiotic-antimycotic (AA). Cells were cultured and maintained in a humidified incubator at 37° C. under 5% CO2 and 95% air. Cells were sub-cultured every 3 days by scraping and were not used beyond passage 20. All cell culture supplies were obtained from Life Technologies (Grand Island, N.Y.).
RAW 264.7 cells were plated 1 day in advance of experiment at a concentration of 80,000 cells/well onto CellBIND® 96 well plates (Corning, N.Y.) in a total volume of 100 μL. The next day, pre-treat cells with compounds (from 3 μM to 0.3 nM serially diluted in a 10 point curve) from a 10× stock by adding 10 μL per well in complete DMEM media containing 10% fetal calf serum. The plates were centrifuged for 3 minutes at 400×g at room temperature followed by 2 hour incubation at 37° C. The cells were then incubated overnight at 37° C. with 10 μL of the insult, interferon gamma (R&D Systems, Minneapolis, Minn.), from a 10× stock for a final concentration of 20 ng/mL. The plates were centrifuged for 3 minutes at 400×g at room temperature followed by ˜18 hour incubation at 37° C. The following day, transfer 50 μL cell culture supernatant from each well into a clear bottom 96 well plate and follow the instructions from Promega's Griess Detection Kit #G2930 (Madison, Wis.) which involves the addition of 50 μL of the provided sulfanilamide solution for a 5-10 minute incubation at room temperature. Next add 50 μL of the provided N-1-napthylethylenediamine dihydrochloride (NED) solution for a 5-10 minute incubation at room temperature and protected from light. If any air bubbles were introduced into the well, the plates need to be centrifuged for 5 minutes at 400×g at room temperature to avoid interference with absorbance readings. The plates were read for absorbance within 30 minutes with a filter between 520 nm and 550 nm.
For the ability of compounds to suppress the increase in nitric oxide release, the percent maximal intensity of nitric oxide detected in each well was normalized to that induced by the peak value for 20 ng/mL of interferon gamma alone and plotted against the compound concentration to calculate IC50 values and to control for plate-to-plate variability. Concentration-response data were analyzed using GraphPad Prism (San Diego, Calif.); the IC50 values were derived from a single curve fit to the mean data of n=2-3, in duplicates.
All compounds were dissolved in dimethyl sulfoxide at 10 mM stock solutions and tested at a concentration that the dimethyl sulfoxide levels never exceeded 1%.

SMILES	IC50
C[C@@H]1C(=O)C(C#N)=C[C@]2(c3ccccc3)c3nn(C)c(-c4ccc(-c5ccncc5)cc4)c3CC[C@@H]12 [Example 143, (5aS,6S,9aR)-2,6-dimethyl-7-oxo-9a-phenyl-3-[4-(pyridin-4-yl)phenyl]-4,5,5a,6,7,9a-hexahydro-2H-benzo[g]indazole-8-carbonitrile]	69.3 nM
C[C@@H]1C(=O)C(C#N)=C[C@]2(c3ccccc3)c3nn(C)c(-c4cccc(-c5cn[nH]c5)c4)c3CC[C@@H]12 [Example 167, (5aS,6S,9aR)-2,6-dimethyl-7-oxo-9a-phenyl-3-[3-(1H-pyrazol-4-yl)phenyl]-4,5,5a,6,7,9a-hexahydro-2H-benzo[g]indazole-8-carbonitrile]	3.27 nM
C[C@@H]1C(=O)C(C#N)=C[C@]2(c3ccccc3)c3n[nH]c(-c4cnn(C)c4)c3CC[C@@H]12 [Example 89, (5aS,6S,9aR)-6-methyl-3-(1-methyl-1H-pyrazol-4-yl)-7-oxo-9a-phenyl-4,5,5a,6,7,9a-hexahydro-2H-benzo[g]indazole-8-carbonitrile]	8.18 nM
C[C@@H]1C(=O)C(C(N)=O)=C[C@]2(Cc3ccccc3)c3nn(C)c(-c4ccccc4)c3CC[C@@H]12 (racemic) [Example 165, rac-(5aS,6S,9aR)-9a-benzyl-2,6-dimethyl-7-oxo-3-phenyl-4,5,5a,6,7,9a-hexahydro-2H-benzo[g]indazole-8-carboxamide]	706 nM
Cc1nc(-c2cccc(-c3ccc(N)cc3)c2)c2c(n1)[C@@]1(c3ccccc3)C=C(C#N)C(=O)[C@@H](C)[C@@H]1CC2 [Example 118, (6aS,7S,10aR)-4-(4′-aminobiphenyl-3-yl)-2,7-dimethyl-8-oxo-10a-phenyl-5,6,6a,7,8,10a-hexahydrobenzo[h]quinazoline-9-carbonitrile]	4.62 nM
COC(=O)c1ccc([C@]23C=C(C#N)C(=O)[C@@H](C)[C@@H]2CCc2c(-c4c(Br)ncn4C)nc(C)nc23)cc1 [Example 176, methyl 4-[(6aS,7S,10aR)-4-(4-bromo-1-methyl-1H-imidazol-5-yl)-9-cyano-2,7-dimethyl-8-oxo-6,6a,7,8-tetrahydrobenzo[h]quinazolin-10a(5H)-yl]benzoate]	12.8 nM
Cc1nc(-c2ccccc2)c2c(n1)[C@@]1(c3ccccc3)C=C(C#N)C(=O)[C@@H](C)[C@@H]1CC2 [Example 21, (6aS,7S,10aR)-2,7-dimethyl-8-oxo-4,10a-diphenyl-5,6,6a,7,8,10a-hexahydrobenzo[h]quinazoline-9-carbonitrile]	9.94 nM
C[C@@H]1C(=O)C(C#N)=C[C@]2(Cc3ccccc3)c3nn(C)c(-c4ccccc4)c3CC[C@@H]12 (racemic) [Example 164, rac-(5aS,6S,9aR)-9a-benzyl-2,6-dimethyl-7-oxo-3-phenyl-4,5,5a,6,7,9a-hexahydro-2H-benzo[g]indazole-8-carbonitrile]	65 nM
CC(C)Oc1nc(-c2ccccc2F)nc2c1CC[C@H]1[C@H](C)C(=O)C(C#N)=C[C@]21c1ccccc1 [Example 31, (6aS,7S,10aR)-2-(2-fluorophenyl)-4-isopropoxy-7-methyl-8-oxo-10a-phenyl-5,6,6a,7,8,10a-hexahydrobenzo[h]quinazoline-9-carbonitrile]	272 nM
COC(=O)c1cccc([C@]23C=C(C#N)C(=O)[C@@H](C)[C@@H]2CCc2cncnc23)c1 [Example 59, methyl 3-[(6aS,7S,10aR)-9-cyano-7-methyl-8-oxo-6,6a,7,8-tetrahydrobenzo[h]quinazolin-10a(5H)-yl]benzoate]	6.53 nM
Cc1nc(-c2ccc3[nH]cnc3c2)c2c(n1)[C@@]1(c3ccc(F)cc3)C=C(C#N)C(=O)[C@@H](C)[C@@H]1CC2 [Example 91, (6aS,7S,10aR)-4-(1H-benzimidazol-5-yl)-10a-(4-fluorophenyl)-2,7-dimethyl-8-oxo-5,6,6a,7,8,10a-hexahydrobenzo[h]quinazoline-9-carbonitrile]	13.6 nM
C[C@@H]1C(=O)C(C#N)=C[C@]2(c3ccccc3)c3nc(-c4ccc(C(N)=O)cc4)ncc3CC[C@@H]12 [Example 136, 4-[(6aS,7S,10aR)-9-cyano-7-methyl-8-oxo-10a-phenyl-5,6,6a,7,8,10a-hexahydrobenzo[h]quinazolin-2-yl]benzamide]	3.37 nM
C[C@@H]1C(=O)C(C#N)=C[C@]2(c3cccc(C(=O)O)c3)c3nc(-c4ccccc4)ncc3CC[C@@H]12 [Example 100, 3-[(6aS,7S,10aR)-9-cyano-7-methyl-8-oxo-2-phenyl-6,6a,7,8-tetrahydrobenzo[h]quinazolin-10a(5H)-yl]benzoic acid]	426 nM
C[C@@H]1C(=O)C(C#N)=C[C@]2(c3ccccc3)c3nn(C)c(-c4cccc(-c5cccc(C(=O)O)c5)c4)c3CC[C@@H]12 [Example 166, 3′-[(5aS,6S,9aR)-8-cyano-2,6-dimethyl-7-oxo-9a-phenyl-4,5,5a,6,7,9a-hexahydro-2H-benzo[g]indazol-3-yl]biphenyl-3-carboxylic acid]	65.6 nM
Cc1nc(-c2cccc(-c3ccc(C(N)=O)cc3)c2)c2c(n1)[C@@]1(c3ccccc3)C=C(C#N)C(=O)[C@@H](C)[C@@H]1CC2 [Example 135, 3′-[(6aS,7S,10aR)-9-cyano-2,7-dimethyl-8-oxo-10a-phenyl-5,6,6a,7,8,10a-hexahydrobenzo[h]quinazolin-4-yl]biphenyl-4-carboxamide]	8.22 nM
Cc1ncc2c(n1)[C@@]1(c3ccccc3)C=C(C#N)C(=O)[C@@H](C)[C@@H]1CC2 (racemic) [Example 33, rac-(6aS,7S,10aR)-2,7-dimethyl-8-oxo-10a-phenyl-5,6,6a,7,8,10a-hexahydrobenzo[h]quinazoline-9-carbonitrile]	23 nM
COC(=O)n1cc2c(n1)[C@@]1(c3ccccc3)C=C(C#N)C(=O)[C@@H](C)[C@@H]1CC2 [Example 32, methyl (5aS,6S,9aR)-8-cyano-6-methyl-7-oxo-9a-phenyl-4,5,5a,6,7,9a-hexahydro-2H-benzo[g]indazole-2-carboxylate]	25.9 nM
COc1nc(Nc2ccccc2)nc2c1CC[C@H]1[C@H](C)C(=O)C(C#N)=C[C@]21c1ccccc1 [Example 14, (6aS,7S,10aR)-2-anilino-4-methoxy-7-methyl-8-oxo-10a-phenyl-5,6,6a,7,8,10a-hexahydrobenzo[h]quinazoline-9-carbonitrile]	11.4 nM
COc1ccc([C@]23C=C(C#N)C(=O)[C@@H](C)[C@@H]2CCc2c(-c4cncn4C)nc(C)nc23)cc1 [Example 174, (6aS,7S,10aR)-10a-(4-methoxyphenyl)-2,7-dimethyl-4-(1-methyl-1H-imidazol-5-yl)-8-oxo-5,6,6a,7,8,10a-hexahydrobenzo[h]quinazoline-9-carbonitrile]	1.9 nM
Cc1nc(-c2cccc(-c3cccc(NS(C)(=O)=O)c3)c2)c2c(n1)[C@@]1(c3ccccc3)C=C(C#N)C(=O)[C@@H](C)[C@@H]1CC2 [Example 124, N-{3′-[(6aS,7S,10aR)-9-cyano-2,7-dimethyl-8-oxo-10a-phenyl-5,6,6a,7,8,10a-hexahydrobenzo[h]quinazolin-4-yl]biphenyl-3-yl}methanesulfonamide]	1.35 nM
Cc1nc(-c2cncnc2)c2c(n1)[C@@]1(c3ccccc3)C=C(C(N)=O)C(=O)[C@@H](C)[C@@H]1CC2 [Example 130, (6aS,7S,10aR)-2,7-dimethyl-8-oxo-10a-phenyl-4-(pyrimidin-5-yl)-5,6,6a,7,8,10a-hexahydrobenzo[h]quinazoline-9-carboxamide]	> 3000 nM
Cc1nc(-c2ccc(O)nc2)c2c(n1)[C@@]1(c3ccccc3)C=C(C#N)C(=O)[C@@H](C)[C@@H]1CC2 [Example 133, (6aS,7S,10aR)-4-(6-hydroxypyridin-3-yl)-2,7-dimethyl-8-oxo-10a-phenyl-5,6,6a,7,8,10a-hexahydrobenzo[h]quinazoline-9-carbonitrile]	311 nM
C[C@@H]1C(=O)C(C#N)=C[C@]2(c3cccc(C(=O)O)c3)c3n[nH]cc3CC[C@@H]12 [Example 71, 3-[(5aS,6S,9aR)-8-cyano-6-methyl-7-oxo-2,4,5,5a,6,7-hexahydro-9aH-benzo[g]indazol-9a-yl]benzoic acid]	1470 nM
C[C@@H]1C(=O)C(C#N)=C[C@]2(c3ccccc3)c3nc(-c4ccccc4)ncc3CC[C@@H]12 (racemic) [Example 7, rac-(6aS,7S,10aR)-7-methyl-8-oxo-2,10a-diphenyl-5,6,6a,7,8,10a-hexahydrobenzo[h]quinazoline-9-carbonitrile]	30.4 nM
